Counter-ions that a name gives are not always drawn.

For the experiment, the target named is human μ-opioid receptor (Homo sapiens (Human), UniProt P35372). Kind of experiment: Antagonist activity test using [35S]-GTPγS bond as index using human μ-opioid receptor-expressing cell membrane. Format: biochemical.
Take `CC[C@]1(c2cccc(NS(=O)(=O)C3CC3)c2)[C@@H]2CN(CCCN3CCC(F)(F)C3)C[C@@H]21` [Example 8-(b), N-(3-{(1R,5S,6r)-3-[3-(3,3-difluoropyrrolidin-1-yl)propyl]-6-ethyl-3-azabicyclo[3.1.0]hexan-6-yl}phenyl)cyclopropanesulfonamide hydrochloride]: the IC50 came out at 2.9 nM. Next, `CC[C@]1(c2cc(NS(=O)(=O)C3CC3)ccc2F)[C@@H]2CN(CC3(O)Cc4ccccc4C3)C[C@@H]21` [Example 2-(b), N-(3-{(1R,5S,6r)-6-ethyl-3-[(2-hydroxy-2,3-dihydro-1H-inden-2-yl)methyl]-3-azabicyclo[3.1.0]hexan-6-yl}-4-fluorophenyl)cyclopropanesulfonamide hydrochloride]: 2 nM.

In turn, `CC[C@]1(c2cccc(NS(=O)(=O)C3CC3)c2)[C@@H]2CN(CCCC3CCC(F)(F)CC3)C[C@@H]21` [Example 4-(b), N-(3-{(1R,5S,6r)-3-[3-(4,4-difluorocyclohexyl)propyl]-6-ethyl-3-azabicyclo[3.1.0]hexan-6-yl}phenyl)cyclopropanesulfonamide hydrochloride] showed a 50% inhibitory concentration (IC50) of 1.5 nM. Next, `CC[C@]1(c2cccc(NS(=O)(=O)C3CC3)c2)[C@@H]2CN(CCCN3CCCC(F)(F)C3)C[C@@H]21` [Example 16-(b), N-(3-{(1R,5S,6r)-3-[3-(3,3-difluoropiperidin-1-yl)propyl]-6-ethyl-3-azabicyclo[3.1.0]hexan-6-yl}phenyl)cyclopropanesulfonamide hydrochloride]: 3.1 nM; `CC[C@]1(c2cc(NS(=O)(=O)C3CC3)ccc2F)[C@@H]2CN(CCCN3CCC(F)(F)CC3)C[C@@H]21` [Example 15-(b), N-(3-{(1R,5S,6r)-3-[3-(4,4-difluoropiperidin-1-yl)propyl]-6-ethyl-3-azabicyclo[3.1.0]hexan-6-yl}-4-fluorophenyl)cyclopropanesulfonamide hydrochloride]: 1.7 nM; `CC[C@]1(c2cc(F)cc(NS(=O)(=O)C3CC3)c2)[C@@H]2CN(CC3(O)Cc4ccccc4C3)C[C@@H]21` [Example 10-(b), N-(3-{(1R,5S,6r)-6-ethyl-3-[(2-hydroxy-2,3-dihydro-1H-inden-2-yl)methyl]-3-azabicyclo[3.1.0]hexan-6-yl}-5-fluorophenyl)cyclopropanesulfonamide hydrochloride]: 3.2 nM.

As to `CC[C@]1(c2cc(NS(=O)(=O)C3CC3)ccc2F)[C@@H]2CN(CCCC3CCC(F)(F)CC3)C[C@@H]21` [Example 5-(b), N-(3-{(1R,5S,6r)-3-[3-(4,4-difluorocyclohexyl)propyl]-6-ethyl-3-azabicyclo[3.1.0]hexan-6-yl}-4-fluorophenyl)cyclopropanesulfonamide hydrochloride], inhibition was half-maximal at 1.6 nM (IC50).

These data come from patent publication US9663463B2, “3-azabicyclo[3.1.0]hexane derivative and use thereof for medical purpose” (priority 2013, dated 2017).
